# Data reported in patent publication US12685725B2, “Pridopidine for the treatment of mitochondrial-associated diseases and disorders and endoplasmic reticulum (ER) stress” (PRILENIA NEUROTHERAPEUTICS LTD., priority 2019, dated 2026).
# Where two headings read alike, the source gives them in different places.
# Key:
# [1] = tested on: YAC128 cortical and striatal neurons; conditions: 24 h
# Protocol: After basal reading for 10 minutes, neurons were stimulated with antimycin A (2 μM).
# HD human lymphoblasts = conditions: pridopidine 24 h prior to H2O2 6 h, p=0.0016
# Protocol: Cell viability was assessed on lymphoblasts using the MTS assay, a measure of mitochondrial function and cell survival. The assay was performed according to the manufacturer's instructions (Promega, catalog no. G1112). In the day of experiment, MTS reagent was added to the culture media (1:10) and incubated at 37° C. for 4 hours. Then, lymphoblasts were centrifuged at 145×g for 5 min and media was collected. The absorbance of the formazan dye produced by viable cells was quantified in the medium at OD=490 nm.
# [2] = tested on: WT and YAC128 cortical/striatal co-cultures; conditions: 24 h
# Protocol: Oxygen consumption rate (OCR) in WT and hemizygous YAC128 cortical/striatal co-cultures and NSCs was measured using Seahorse XFe-24/96 flux analyzers (Seahorse Bioscience, Billerica, MA, USA) following the manufacturer's instructions. […] Pridopidine (0.1, 1 and/or 5 μM) was added, when indicated in the graphs, 24 h before the experiment. The sensor cartridge plate was incubated with immersed sensors in a non-CO2 incubator at 37° C. for ~16 h (overnight). […] The cell medium was aspirated gently to avoid disturbing cell monolayers. […] Accordingly, mitochondrial basal respiration, maximal respiration and ATP production was automatically calculated and recorded by the Seahorse software. Data was normalized for protein levels.
# [3] = tested on: S1R-dependence of eIF2α phosphorylation in HEK 293 cells; conditions: 8 h
# Protocol: HEK 293 cells were transfected with plasmids carrying Cas9 and 3 different guide RNAs (gRNA) targeting human Sigma1-R and a control gRNA. Ten days after transfection and selection with puromycin, cell lysates of the pools of selected cells were tested for S1R knockout by immunoblotting. […] Subsequent cloning by dilution produced, after 4 weeks, several clones with complete knockout of Sigma1-R for each gRNA.
# Cells were lysed in PBS containing 1% Triton X-100, 0.5% sodium deoxycholate with protease inhibitors and centrifuged to pellet insoluble aggregates, debris and nuclei. Phosphatase inhibitor cocktail 2 and 3 and 10 mM 0-glycerol phosphate were added to the lysis buffer to inhibit phosphatases for detection of phosphorylated proteins. Supernatants were separated from pellets and incubated in loading buffer for 5 min at 100° C., pellets were incubated for 10 min at 100° C. After SDS-PAGE and transfer to nitrocellulose membrane, blocking was done in 5% low-fat milk and 0.1% Tween-20 in PBS for 1 h. Incubation with the primary antibody was overnight at 4° C. and after three washes in 0.1% Tween-20 in PBS, incubation with the appropriate secondary antibody was for 1 h at room temperature. After washing, enhanced chemiluminescence assay was performed and the membrane was exposed and quantified in a Bio-Rad ChemiDocXRS Imaging System (Bio-Rad, Hercules, CA).
# [4] = tested on: WT and YAC128 cortical and striatal neurons; conditions: 24 h
# Protocol: Mitochondrial membrane potential (Δψm) was assessed in cortical and striatal neurons using the positively changed fluorescent probe TMRM (tetramethylrhodamine methyl ester) (Thermo Fisher Sci., catalog no: T668) and in cortical/striatal co-cultures and lymphoblasts using an equivalent probe, TMRE (tetramethylrhodamine ethyl ester) (Abcam, catalog no. ab113852).
# Under these conditions, retention of TMRM by mitochondria was studied to estimate changes in Δψm. […] TMRM release was calculated based in the differences in fluorescence before and after addition of oligomycin/FCCP.
# [5] = tested on: WT and YAC128 striatal neurons
# Protocol: Briefly, plasmid was diluted in TE (in mM: 1 Tris-HCl pH 7.3, 1 mM EDTA), followed by the addition of CaCl2 (in mM: 2.5 CaCl2 in 10 HEPES, pH 7.2). The DNA solution was carefully added to 2×HEBS (in mM: 12 dextrose, 50 HEPES, 10 KCl, 280 NaCl and 1.5 Na2HPO4·2H2O, pH 7.2) while bubbling air through the solution. The mixture was then incubated for 25 min at room temperature. The precipitates were added dropwise to the coverslips in Neurobasal medium and incubated for 80 minutes at 37° C. The DNA-Ca^2+-phosphate precipitates were dissolved with freshly-made dissolution medium (Neurobasal medium with 20 mM HEPES, pH 6.8) and incubated for 7 min at room temperature. The transfected neurons were then washed with Neurobasal medium and transferred back to their original dishes containing conditioned culture medium until DIV12.
# MitoDsRed-transfected striatal neurons were fixed with 4% paraformaldehyde (pre-warmed at 37° C.) for 20 minutes, permeabilized in 0.2% Triton X-100 in PBS for 2 minutes and blocked for 1 hour at room temperature in 3% (w/v) BSA in PBS. […] Confocal images were obtained as stacks, at 0.46 μm intervals along the z axis, using a Plan-Apochromat/1.4NA 63× lens on an Axio Observer.Z1 confocal microscope (Zeiss Microscopy, Germany) with Zeiss LSM 710 software. FIJI (ImageJ, National Institute of Health, USA) was used for image analysis. […] To optimally resolve individual mitochondria, a threshold was applied followed by the Analyze Particles function to trace mitochondrial outlines. For S1R and IP3R3 fluorescence, a threshold was set similarly to the one described above, and Integrated Density was obtained. S1R and IP3R3 Integrated Density was calculated inside of mitochondrial ROIs selection to obtain ER co-localization with mitochondria.
# [6] = tested on: CHOP, GADD34, ATF6, XBP1s in cells expressing myc-Htt96Q or myc-Htt20Q
# Protocol: Total cell RNA was extracted with TRIzol reagent (Invitrogen) according to the manufacturer's instructions. […] Real-time PCR was carried out using a CFX Connect Real-Time PCR Detection System (BioRad) and the amplifications were done using the SYBR Green PCR Master Mix (Cat.No. pb089617-100-1) (Pcrbio). Reactions were run in triplicates in three independent experiments. Housekeeping gene GAPDH was used as an internal control to normalize the variability of expression levels.
# Cells were lysed in PBS containing 1% Triton X-100, 0.5% sodium deoxycholate with protease inhibitors and centrifuged to pellet insoluble aggregates, debris and nuclei. Phosphatase inhibitor cocktail 2 and 3 and 10 mM […] phosphate were added to the lysis buffer to inhibit phosphatases for detection of phosphorylated proteins. Supernatants were separated from pellets and incubated in loading buffer for 5 min at 100° C., pellets were incubated for 10 min at 100° C. After SDS-PAGE and transfer to nitrocellulose membrane, blocking was done in 5% low-fat milk and 0.1% Tween-20 in PBS for 1 h. Incubation with the primary antibody was overnight at 4° C. and after three washes in 0.1% Tween-20 in PBS, incubation with the appropriate secondary antibody was for 1 h at room temperature. After washing, enhanced chemiluminescence assay was performed and the membrane was exposed and quantified in a Bio-Rad ChemiDocXRS Imaging System (Bio-Rad, Hercules, CA).
# [7] = YAC128 striatal neurons, 1 μM, 24 h
# [8] = cells expressing mutant Htt96Q, 48 h
smiles,measurement,setting,value
"CCCN1CCC(c2cccc(S(C)(=O)=O)c2)CC1 [Pridopidine, 4-[3-(methylsulfonyl)phenyl]-1-propyl-piperidine]",mito-H2O2 levels prompted by Ant A,"[1]; YAC128 cortical neurons, 1 μM, p<0.0001",reverts the increased levels of mito-H2O2 prompted by Ant A
same,mito-H2O2 levels prompted by Ant A,"[1]; YAC128 striatal neurons, 0.1 μM, p=0.0005",reverts the increased levels of mito-H2O2 prompted by Ant A
same,mito-H2O2 levels prompted by Ant A,"[1]; YAC128 striatal neurons, 1 μM, p<0.0001",reverts the increased levels of mito-H2O2 prompted by Ant A
same,increase in cell viability,HD human lymphoblasts,approximately 50%
same,maximal respiration,"[2]; HD Y128 corticostriatal neurons, 1 μM, p=0.0061",rescues maximal
same,maximal respiration,"[2]; HD Y128 corticostriatal neurons, 5 μM, p=0.002",rescues maximal
same,ATP production,"[2]; HD Y128 corticostriatal neurons, 5 μM, p=0.0358",rescues
same,basal respiration,"[2]; HD Y128 corticostriatal neurons, 1 and 5 μM",non-significant trend towards increasing basal respiration
same,maximal respiration,"[2]; WT cells, 1 and 5 μM",increases maximal respiration in both WT and Y128 cells
same,mitochondrial basal respiration,"[2]; WT neurons, 1 μM, p=0.0058",enhances mitochondrial basal respiration
same,mitochondrial basal respiration,"[2]; WT neurons, 5 μM, p=0.0016",enhances mitochondrial basal respiration
same,ATP production,"[2]; WT neurons, 5 μM, p=0.02",enhances
same,eIF2α-P levels,[3]; S1R expressing control clone expressing Htt96Q,significantly reduces eIF2α-P levels
same,concentration of maximal effect on eIF2α phosphorylation,[3]; control clone expressing myc-Htt96Q,3 µM
same,"mitochondrial membrane potential (MMP), TMRM release","[4]; WT striatal neurons, 1 μM, p=0.0013",also increases MMP
same,"mitochondrial membrane potential (MMP), TMRM release","[4]; Y128 high mHTT, cortical neurons, 0.1 μM, p=0.015",significantly increases MMP
same,"mitochondrial membrane potential (MMP), TMRM release","[4]; Y128 high mHTT, cortical neurons, 1 μM, p=0.0201",significantly increases MMP
same,"mitochondrial membrane potential (MMP), TMRM release","[4]; Y128 high mHTT, striatal neurons, 0.1 μM, p=0.0407",significantly increases MMP
same,"mitochondrial membrane potential (MMP), TMRM release","[4]; Y128 high mHTT, striatal neurons, 1 μM, p=0.0017",significantly increases MMP
same,"mitochondrial membrane potential (MMP), TMRM release","[4]; Y128 low mHTT, cortical neurons, 0.1 μM, p=0.0008",significantly increases MMP
same,"mitochondrial membrane potential (MMP), TMRM release","[4]; Y128 low mHTT, cortical neurons, 1 μM, p=0.0303",significantly increases MMP
same,"mitochondrial membrane potential (MMP), TMRM release","[4]; Y128 low mHTT, striatal neurons, 0.1 μM, p=0.0274",significantly increases MMP
same,S1R co-localization with mitochondria,"[5]; Y128 neurons, 1 μM, 24 h, p<0.0001",increase in IP3R and S1R co-localization with mitochondria
same,IP3R co-localization with mitochondria,"[5]; Y128 neurons, 1 μM, 24 h, p=0.0001",increase in IP3R and S1R co-localization with mitochondria
same,total S1R protein levels,[5]; Y128 striatal neurons,restores S1R levels to WT levels
same,S1R total levels in neurites,[5]; [7],significantly increases S1R levels
same,S1R total levels in soma,[5]; [7],significantly increases S1R levels
same,reduction in ATF6 fragment,"[6]; Htt96Q-expressing cells, 3 μM",35%
same,reduction in XBP-1s mRNA (IRE1 pathway),"[6]; Htt96Q-expressing cells, 3 μM",25%
same,CHOP and GADD34 levels,[6]; cells expressing Htt20Q,does not affect these factors
same,reduction of CHOP levels,[6]; [8],2.5 fold
same,reduction of GADD34 levels,[6]; [8],7 fold
